The values that follow come from US20080021034A1, “Compositions and methods for modulating gated ion channels” (PainCeptor Pharma Corporation, priority 2006, published 2008).

This assay relates to proton-gated ion channels (ASIC). Kind of assay: Two-electrode voltage clamp in Xenopus laevis oocytes expressing gated ion channels (Xo). The format is cell-based. To be noted: acidic solution (pH<7) activation. The protocol: Two-electrode voltage clamp electrophysiological assays in Xenopus laevis oocytes expressing gated ion channels are performed as follows:
Oocytes are surgically removed from adult Xenopus laevis and treated for 2 h at room temperature with 1 mg/ml type I collagenase (Sigma) in Barth's solution under mild agitation. Selected oocytes at stage IV-V are defolliculated manually before nuclear microinjection of 2.5-5 ng of a suitable expression vector, such as pCDNA3, comprising the nucleotide sequence encoding a gated ion channel subunit protein. In such an experiment, the oocytes express homomultimeric proton-gated ion channels on their surface. In an alternate experiment, one, two, three or more vectors comprising the coding sequences for distinct gated ion channel subunits are co-injected in the oocyte nuclei. In the latter case, oocytes express heteromultimeric proton-gated ion channels. For example, ASIC2a and/or ASIC3 subunits in pcDNA3 vector are co-injected at a 1:1 cDNA ratio. After 2-4 days of expression at 19° C. in Barth's solution containing […] gentamicin and 1.8 mM CaCl2, gated ion channels are activated by applying an acidic solution (pH<7) and currents are recorded in a two electrode voltage-clamp configuration, using an OC-725B amplifier (Warner Instruments). Currents are acquired and digitized at 500 Hz on an Apple Imac G3 computer with an A/D NB-MIO-16XL interface (National Instruments) and recorded traces are post-filtered at 100 Hz in Axograph (Axon Instruments) (Neher, E. and Sakmann, B. (1976) Nature 260:799-802). Once impaled with the microelectrodes, oocytes are continuously superfused at 10-12 ml/min with a modified Ringer's solution containing 97 mM NaCl, 2 mM KCl, 1.8 mM CaCl2, and 10 mM HEPES brought to pH 7.4 with NaOH (Control Ringer). Test Ringer solution is prepared by replacing HEPES with MES and adjusting the pH to the desired acidic value. Compounds of the present invention are prepared in both the Control and Test Ringer solutions and applied to oocytes at room temperature through a computer-controlled switching valve system. Osmolarity of all solutions is adjusted to 235 mOsm with choline chloride. Similarly, recordings can also be acquired in an automated multichannel oocytes system as the OpusExpress™ (Molecular Devices, Sunnyvale, USA).
Consider `CN1CCC2=C(c3ccccc3)CC[C@@H](C(=O)N3CCNCC3)[C@H]2C1` [Compound 22], for which the “percent effect on acid-evoked current (two-electrode voltage clamp)” value (from here on “percent effect on acid-evoked current”) is listed as under 20%.
For `CN1CCC(O)(/C(=N\Nc2ccc([N+](=O)[O-])cc2[N+](=O)[O-])c2ccccc2)CC1` [Compound 42], the “Xo: percent binding data” value is under 20%.
On to `CN1CCC(O)(/C(=N\Nc2ccccn2)c2ccccc2)CC1` [Compound 48], for which the “percent effect on acid-evoked current” value is under 20%.
The same measure, in the same setting: with `C#CCNC(=O)[C@@H]1CCC(c2ccccc2)=C2CCN(C)CC21` (stereo partly shown) [Compound 15] the figure was under 20%; with `CN1CCC2=C(c3ccccc3)CC[C@@H](C(=O)Nc3ccccc3)C2C1` (stereo partly shown) [Compound 17], under 20%; with `CN1CCC2=C(c3ccccc3)CCC(NC(=O)c3cccc(/C=N/O)c3)[C@H]2C1` (stereo partly shown) [Compound 27], under 20%.
As for `CN1CCC2=C(c3ccccc3)CCC(NC(=O)c3ccc(Cl)cc3)C2C1` (stereo not shown) [Compound 35], the “percent effect on acid-evoked current” value is recorded as under 20%.
With `CN1CCC2=C(c3ccccc3)CC[C@@H](C(=O)Nc3cccnc3)C2C1` (stereo partly shown) [Compound 19], the “percent effect on acid-evoked current” value is under 20%.
Take `CN1CCC2=C(c3ccccc3)Cn3c(=O)n(C)c(=O)n3C2C1` (stereo not shown) [Compound 56]: the “percent effect on acid-evoked current” value was under 20%.
The same measure, in the same setting: with `CC(C)(C)OC(=O)N1CCC2=C(c3ccccc3)CC=C(C#N)C2C1` (stereo not shown) [Compound 5] the figure was under 20%; with `CN1CCC(O)(/C(=N\NC(=O)c2ccccc2[N+](=O)[O-])c2ccccc2)CC1` [Compound 50], under 20%; with `CN1CCC2=C(c3ccccc3)CCC(NC(=O)c3cccc(O)c3)C2C1` (stereo not shown) [Compound 30], under 20%.
`CCOC(=O)C1=C(Nc2ccccc2)CCN(Cc2ccccc2)C1` [Compound 55]: the “Xo: percent binding data” value is under 20%.
With `CCOC(=O)N1CC(c2ccccc2)=C2CCN(C(=O)OC(C)(C)C)C[C@@H]2N1C(=O)OCC` [Compound 2], the “percent effect on acid-evoked current” value is listed as under 20%.
As to `COC(=O)C1=CCC(c2ccccc2)=C2CCN(C(=O)OC(C)(C)C)CC12` (stereo not shown) [Compound 8], the “percent effect on acid-evoked current” value was under 20%.
Same read-out and setting: with `CN1CCC(O)(/C(=N\NC(=O)c2ccc(O)cc2O)c2ccccc2)CC1` [Compound 45] the figure was under 20%.
Consider `CN1CC[C@@H]2/C(=N/O)c3ccccc3[C@@H]2C1` [Compound 41], for which the “percent effect on acid-evoked current” value is under 20%.
The same measure, in the same setting: for `N#CC1=CCC(c2ccccc2)=C2CCNCC12` (stereo not shown) [Compound 4] the value was under 20%; for `CN1CCC2=C(c3ccccc3)CC[C@@H](NC(=O)c3ccccc3)[C@H]2C1` [Compound 25], under 20%.
The same measure, in the same setting: with `CN1CCC2=C(c3ccccc3)CC[C@@H](C(=O)NCCO)C2C1` (stereo partly shown) [Compound 20] the figure was under 20%.
Consider `CN1CCC2=C(c3ccccc3)CCC(N)C2C1` (stereo not shown) [Compound 26], for which the “percent effect on acid-evoked current” value was under 20%.
Consider `CN1CCC2=C(c3ccccc3)CC[C@@H](C(=O)N(C)C)C2C1` (stereo partly shown) [Compound 16], for which the “percent effect on acid-evoked current” value was under 20%.
Turning to `CCOC(=O)N1NCC(c2ccccc2)=C2CCN(C)CC21` (stereo not shown) [Compound 3], the “percent effect on acid-evoked current” value is under 20%.
Same read-out and setting: with `CN1CCC2=C(c3ccccc3)CCC(C(=O)Nc3ccc(Cl)cc3)C2C1` (stereo not shown) [Compound 13] the figure was under 20%; with `CN1CCC(O)(/C(=N\NC(=O)c2cccc(O)c2)c2ccccc2)CC1` [Compound 54], under 20%; with `CN1CCC2=C(c3ccccc3)CCC(C(=O)Nc3cccc(Cl)c3)C2C1` (stereo not shown) [Compound 12], under 20%.
For `CN1CCC2=C(c3ccccc3)CC[C@@H](C(=O)Nc3ccccc3Cl)C2C1` (stereo partly shown) [Compound 14], the “percent effect on acid-evoked current” value was under 20%.
On the same count and under the same terms, with `CN1CCC2=C(c3ccccc3)CCC(NC(=O)c3ccc(/C=N/O)cc3)C2C1` (stereo not shown) [Compound 36] the figure was under 20%; with `CN1CCC2=C(c3ccccc3)CCC(C(=O)OCCO)C2C1` (stereo not shown) [Compound 11], under 20%.
The same measure, in the same setting: with `CC(C)(C)OC(=O)N1CCC2=C(c3ccccc3)CC[C@@H]([N+](=O)[O-])[C@H]2C1` [Compound 31] the figure was under 20%.
Turning to `CN1CC=C(/C(=N\Nc2ccc([N+](=O)[O-])cc2[N+](=O)[O-])c2ccccc2)CC1` [Compound 44], the “Xo: percent binding data” value is under 20%.
In the case of `CN1CCC2=C(c3ccccc3)CCC(NC(=O)c3ccc(C=O)cc3)C2C1` (stereo not shown) [Compound 33], the “percent effect on acid-evoked current” value is given as under 20%.
Take `CN1CCC(O)(/C(=N/N)c2ccccc2)CC1` [Compound 39a]: the “percent effect on acid-evoked current” value is on record as under 20%.
Still for that read-out and setting: for `CN1CCC2=C(c3ccccc3)CCC(NC(=O)c3ccc(/C=N/O)cc3)[C@H]2C1` (stereo partly shown) [Compound 28] the value was under 20%; for `CN1CCC2=C(c3ccccc3)CCC(C(=O)O)C2C1` (stereo not shown) [Compound 9], under 20%; for `CC(=O)N[C@@H]1CCC(c2ccccc2)=C2CCN(C)C[C@@H]21` [Compound 24], under 20%.
On to `CN1CCC2=C(c3ccccc3)CCC(NC(=O)c3cccc(C=O)c3)C2C1` (stereo not shown) [Compound 32], for which the “percent effect on acid-evoked current” value was under 20%.
As to `CN1CCC2=C(c3ccccc3)CC[C@@H](NC(=O)c3ccc(O)cc3)[C@H]2C1` [Compound 29], the “Xo: percent binding data” value is recorded as under 20%.
As to `CN1CCC(O)(/C(=N\NC(=O)c2ccco2)c2ccccc2)CC1` [Compound 47], the “percent effect on acid-evoked current” value was under 20%.
Take `CN1CCC2=C(c3ccccc3)CC[C@@H](C(=O)NCc3ccccc3)[C@H]2C1` [Compound 21]: the “percent effect on acid-evoked current” value is under 20%.
Same read-out and setting: with `CN1CCC2=C(c3ccccc3)CC[C@@H](C(=O)Nc3ccccn3)C2C1` (stereo partly shown) [Compound 18] the figure was under 20%.
Same read-out and setting: with `CN1CCC2=C(c3ccccc3)CCC(NC(=O)c3ccccc3O)C2C1` (stereo not shown) [Compound 34] the figure was under 20%.
In the case of `CN1CCC2=C(c3ccccc3)CC=C(C#N)[C@H]2C1` [Compound 7], the “percent effect on acid-evoked current” value is under 20%.
On to `CN1CC[C@@H]2/C(=N\NC(N)=O)c3ccccc3[C@@H]2C1` [Compound 43], for which the “percent effect on acid-evoked current” value was under 20%.
Same read-out and setting: with `CN1CCC(O)(/C(=N\NC(=O)c2ccccc2N)c2ccccc2)CC1` [Compound 37] the figure was under 20%.
For `COC(=O)C1=C(C(=O)OC)C2CN(C(=O)OC(C)(C)C)CCC2=C(c2ccccc2)C1` (stereo not shown) [Compound 6], the “percent effect on acid-evoked current” value is reported as under 20%.
The same measure, in the same setting: for `CN1CCC(O)(/C(=N\Nc2ccccc2)c2ccccc2)CC1` [Compound 46] the value was under 20%; for `CCOC(=O)c1cccnc1N/N=C(/c1ccccc1)C1(O)CCN(C)CC1` [Compound 51], under 20%; for `CN1CCC2=C(c3ccccc3)Cn3c(=O)n(-c4ccccc4)c(=O)n3C2C1` (stereo not shown) [Compound 57], under 20%.
Still for that read-out and setting: for `CCOC(=O)N1CC(c2ccccc2)=C2CCN(C)CC2N1C(=O)OCC` (stereo not shown) [Compound 1] the value was under 20%.
The same measure, in the same setting: with `CCOC(=O)C1CCC(c2ccccc2)=C2CCN(C)CC21` (stereo not shown) [Compound 10] the figure was under 20%.
`CN1CC[C@@H]2/C(=N/Nc3ccc([N+](=O)[O-])cc3[N+](=O)[O-])c3ccccc3[C@@H]2C1` [Compound 39]: the “Xo: percent binding data” value is under 20%.
As for `CN1CCC(O)(C(=NNC(N)=O)c2ccccc2)CC1` [Compound 52], the “percent effect on acid-evoked current” value was under 20%.
Take `CN1CC[C@@H]2C(=O)c3ccccc3[C@@H]2C1` [Compound 40]: the “percent effect on acid-evoked current” value is recorded as under 20%.
For the compound `CN1CCC2=C(c3ccccc3)CC[C@@H]([N+](=O)[O-])[C@H]2C1` [Compound 23], the “percent effect on acid-evoked current” value is on record as under 20%.
